Measured values from US11447504B2, “Macrocyclic chlorine substituted indole derivatives” (Bayer Aktiengesellschaft, priority 2017, dated 2022).
Structures can show the parent of a compound that is named as a salt. Where two headings read alike, the source gives them in different places.

Assays:
SUDHL5 [1] = assay: Induction of caspase-3/7 activity (Assay 4), SUDHL5; assay type: cell-based; conditions: SUDHL5 cells
Procedure: (§1) Induction of Caspase-3/7 Activity Upon Treatment of Cells with Selected Compounds
The BH3-domain of MCL-1 sequesters pro-apoptotic proteins, thereby inhibiting apoptosis. In contrast, MCL-1 inhibitors are expected to antagonize this effect leading to an increase in apoptosis, which can be determined by measuring the activity of caspase-3/7.
(§2) The activity of caspase-3/7 was determined in DLBCL (Diffuse large B-cell lymphoma) cell lines (SUDHL5 and SUDHL10) upon treatment with different compounds, using the Caspase-Glo®3/7 reagent from Promega (G8092).
(§3) Rim wells were excluded. The cells were incubated for 3 hours in a humidified incubator at 37° C.
(§4) For the evaluation of the results, the background measured with “medium-only” was subtracted from all other values.

SUDHL10 [2] = assay: Induction of cytotoxicity (Assay 6), SUDHL10
Procedure: Assay 6 Induction of Cytotoxicity Upon Treatment of Cells with Selected Compounds
Therefore, cytotoxicity assays were run in parallel in SUDHL5 and SUDHL10 cells.
The different cell lines were plated in culture medium (RPMI 1640 [GIBCO #22400-089]supplemented with 10% Fetal Bovine Serum) at a density of 3,300 cells in 30 μL/well in a sterile, solid black, flat bottom, polystyrene, TC-treated 384-well microplate (Corning #3571) using Multidrop Combi Reagent Dispenser. As a control, medium without cells was also added to the plate. Cells were incubated in a humidified incubator at 37° C. overnight. […] Rim wells were excluded. The cells were incubated for 5 hours in a humidified incubator at 37° C. After this incubation, 30 μL of CellTiter-Glo® Luminescent Cell Viability reagent (Promega, G7573) was added to each well using the Multidrop Combi Reagent Dispenser, followed by 15 minutes incubation on a shaker at room temperature. Finally, luminescence was read at 0.1 ms, with a gain of 3000 using the PHERAstar FS microplate reader (BMG Labtech).

MV-4-11 = assay: Antiproliferation assay 7, MV-4-11; assay type: cell-based; conditions: MV-4-11 cells, CellTiter-Glo, read-out: Antiproli MV-4-11 IC50 median
Procedure: (§5) Assessment of the Anti-Proliferative Effect of Compounds in Different Cell Lines
(§6) The impact of compounds on the proliferation of different cell lines was assessed using the CellTiter-Glo® Luminescent Cell Viability reagent from Promega (G7573).
(§7) In parallel, cells were plated in a reference (day 0) plate for time zero determination.
(§8) Rim wells were excluded. The cells were incubated for 72 hours in a humidified incubator at 37° C. The day 0 plate was measured by adding 30 μL/well of CTG solution (CellTiter-Glo® Luminescent Cell Viability reagent, Promega G7573) to time zero wells in the reference plate followed by a 10 minutes incubation and luminescence reading at 0.1 ms. using the PHERAstar FS microplate reader (BMG Labtech).
(§9) After 72 hours incubation, the treated plates were measured in the same way as the day 0 plate mentioned above.

SUDHL5 [3] = assay: Antiproliferation assay 7, SUDHL5; assay type: cell-based; conditions: SUDHL5 cells, CellTiter-Glo, read-out: Antiproli SUDHL5 IC50 (median)
Procedure: as §5, §6, §7, §8, §9

SUDHL5 [4] = assay: Induction of cytotoxicity (Assay 6), SUDHL5
SUDHL10 [5] = assay: Induction of caspase-3/7 activity (Assay 4), SUDHL10; assay type: cell-based; conditions: SUDHL10 cells
Procedure: as §1
In contrast, MCL-1 inhibitors are expected to antagonize this effect leading to an increase in apoptosis, which can be determined by measuring the activity of caspase-3/7.
as §2, §3, §4

AMO-1 = assay: Antiproliferation assay 7, AMO-1; assay type: cell-based; conditions: AMO-1 cells, CellTiter-Glo, read-out: Antiproli AMO-1 IC50 median
Procedure: as §5, §6, §7, §8, §9

[6] = Homo sapiens, SU-DHL-5, 3 h, Caspase-Glo 3/7, read-out: Caspase SUDHL5 EC50 (median)
[7] = Homo sapiens, SU-DHL10, 5 h, read-out: Cytotox SUDHL10 IC50 (median), SUDHL10 cells, 5 hours, CellTiter-Glo
[8] = Homo sapiens, SU-DHL-5, 5 h, read-out: Cytotox SUDHL5 IC50 (median), SUDHL5 cells, 5 hours, CellTiter-Glo
[9] = Homo sapiens, SU-DHL10, 3 h, Caspase-Glo 3/7, read-out: Caspase SUDHL10 EC50 (median)
[10] = 3 hours, Caspase-Glo 3/7, read-out: Caspase SUDHL5 EC50 (median)
[11] = read-out: Cytotox SUDHL10 IC50 (median), SUDHL10 cells, 5 hours, CellTiter-Glo
[12] = read-out: Cytotox SUDHL5 IC50 (median), SUDHL5 cells, 5 hours, CellTiter-Glo
[13] = 3 hours, Caspase-Glo 3/7, read-out: Caspase SUDHL10 EC50 (median)

SMILES	EC50 (SUDHL5 [1]; [6]) [µM]	IC50 (SUDHL10 [2]; [7]) [µM]	IC50 (MV-4-11; Homo sapiens, MV4-11, 72 h) [µM]	IC50 (SUDHL5 [3]; Homo sapiens, SU-DHL-5, 72 h) [µM]	IC50 (SUDHL5 [4]; [8]) [µM]	EC50 (SUDHL10 [5]; [9]) [µM]	EC50 (SUDHL5 [1]; [10]) [µM]	IC50 (SUDHL10 [2]; [11]) [µM]	IC50 (SUDHL5 [3]; 72 hours) [µM]	IC50 (SUDHL5 [4]; [12]) [µM]	EC50 (SUDHL10 [5]; [13]) [µM]	IC50 (MV-4-11; 72 hours) [µM]	IC50 (AMO-1; 72 hours) [µM]	IC50 (AMO-1; Homo sapiens, AMO1, 72 h) [µM]
CCc1nn(CCN2CCOCC2)c2c1-c1c(Cl)ccc3c(CCCOc4cccc5ccccc45)c(C(=O)O)n(c13)CCCCOC2 (single isomer, unassigned; enantiomer 2) [Example 10, 4-chloro-3-ethyl-1-[2-(morpholin-4-yl)ethyl]-7-[3-(naphthalen-1-yloxy)propyl]-1,10,11,12,13,15-hexahydropyrazolo[4′,3′:9,10][1,6]oxazacycloundecino[8,7,6-hi]indole-8-carboxylic acid-N-ethylethanamine Salt (Enantiomer 2)]	6.6	11	10.9	4.9	5.2	14								
CCc1c2c(nn1C)N(CCC1CCOCC1)CCCCCn1c(C(=O)O)c(CCCOc3cccc4cc(F)ccc34)c3ccc(Cl)c-2c31 (single isomer, unassigned; enantiomer 2) [Example 82, 4-chloro-3-ethyl-7-{3-[(6-fluoronaphthalen-1-yl)oxy]propyl}-2-methyl-15-[2-(oxan-4-yl)ethyl]-10,11,12,13,14,15-hexahydro-2H-pyrazolo[4′,3′:4,5][1,6]diazacycloundecino[3,2,1-hi]indole-8-carboxylic acid N-ethylethanamine Salt—Enantiomer 2]							24	30	7.1	28	23			
Cc1c2c(nn1C)CN(C)CCCn1c(C(=O)O)c(CCCOc3cccc4ccccc34)c3ccc(Cl)c-2c31 (racemic) [Example 29, (rac)-12-chloro-7,10,11-trimethyl-1-[3-(naphthalen-1-yloxy)propyl]-4,5,6,7,8,10-hexahydropyrazolo[3′,4′:7,8][1,5]diazecino[9,10,1-hi]indole-2-carboxylic Acid]	1.2	3.2	2.68			3.7								
Cc1c2c(nn1C)CNCCCn1c(C(=O)O)c(CCCOc3cccc4ccccc34)c3ccc(Cl)c-2c31 (racemic) [Example 28, (rac)-12-chloro-10,11-dimethyl-1-[3-(naphthalen-1-yloxy)propyl]-4,5,6,7,8,10-hexahydropyrazolo[3′,4′:7,8][1,5]diazecino[9,10,1-hi]indole-2-carboxylic Acid-Formic Acid Salt]	2.9	5.6	8.08	3	3.3	5.8								
CCc1c2c(nn1C)CN(C)CCCCn1c(C(=O)O)c(CCCOc3cccc4ccccc34)c3ccc(Cl)c-2c31 (single isomer, unassigned; enantiomer 2) [Example 24, 4-chloro-3-ethyl-2,14-dimethyl-7-[3-(naphthalen-1-yloxy)propyl]-10,11,12,13,14,15-hexahydro-2H-pyrazolo[3′,4′:8,9][1,6]diazacycloundecino[10,11,1-hi]indole-8-carboxylic Acid (Enantiomer 2)]								7.4	3.4	4.7	10	6.72		
Cc1c2c(nn1C)COCCCCn1c(C(=O)O)c(CCCOc3cccc4cc(F)ccc34)c3ccc(Cl)c-2c31 (single isomer, unassigned; enantiomer 2) [Example 17, (−)-4-chloro-7-{3-[(6-fluoronaphthalen-1-yl)oxy]propyl}-2,3-dimethyl-2,10,11,12,13,15-hexahydropyrazolo[4′,3′:9,10][1,6]oxazacycloundecino[8,7,6-hi]indole-8-carboxylic acid-N-ethylethanamine Salt (Enantiomer 2)]							3.6		1.5	3.3	5.2	6.7	8.91	
CCc1nn(C)c2c1-c1c(Cl)ccc3c(CCCOc4cccc5cc(F)ccc45)c(C(=O)O)n(c13)CCCCOC2 (single isomer, unassigned; enantiomer 2) [Example 35, (−)-4-chloro-3-ethyl-7-{3-[(6-fluoronaphthalen-1-yl)oxy]propyl}-1-methyl-1,10,11,12,13,15-hexahydropyrazolo[4′,3′:9,10][1,6]oxazacycloundecino[8,7,6-hi]indole-8-carboxylic Acid (Enantiomer 2)]							7.6		6.1	6.3	22	8.59	13.3	
CCc1nn(C)c2c1-c1c(Cl)ccc3c(CCCOc4cccc5cc(F)ccc45)c(C(=O)O)n(c13)CCCCOC2 (racemic) [Example 33, (rac)-4-chloro-3-ethyl-7-{3-[(6-fluoronaphthalen-1-yl)oxy]propyl}-1-methyl-1,10,11,12,13,15-hexahydropyrazolo[4′,3′:9,10][1,6]oxazacycloundecino[8,7,6-hi]indole-8-carboxylic Acid]	0.67		1.7		1	5.7								1.58
CCc1c2c(nn1C)COCCCCn1c(C(=O)O)c(CCCOc3cccc4ccccc34)c3ccc(Cl)c-2c31 (single isomer, unassigned; enantiomer 2) [Example 21, 4-chloro-3-ethyl-2-methyl-7-[3-(naphthalen-1-yloxy)propyl]-2,10,11,12,13,15-hexahydropyrazolo[4′,3′:9,10][1,6]oxazacycloundecino[8,7,6-hi]indole-8-carboxylic Acid (Enantiomer 2)]							4.6	11	3.3	3.7				
CCc1nn(CCN2CCOCC2)c2c1-c1c(Cl)ccc3c(CCCOc4cccc5ccccc45)c(C(=O)O)n(c13)CCCCN(C)C2 (single isomer, unassigned; enantiomer 2) [Example 47, 4-chloro-3-ethyl-14-methyl-1-[2-(morpholin-4-yl)ethyl]-7-{3-[(naphthalen-1-yl)oxy]propyl}-10,11,12,13,14,15-hexahydro-1H-pyrazolo[3′,4′:8,9][1,6]diazacycloundecino[10,11,1-hi]indole-8-carboxylic Acid (Enantiomer 2)]							11	17	8	10	22	5.65		
Cc1c2c(nn1C)COCC1CCC1Cn1c(C(=O)O)c(CCCOc3cccc4ccccc34)c3ccc(Cl)c-2c31 (single isomer, unassigned; stereoisomer 2) [Example 64]							1.8	7.3	4.2	2.3	8.3		10.8	
Cc1c2c(nn1C)CN(C)CCCCn1c(C(=O)O)c(CCCOc3cccc4ccccc34)c3ccc(Cl)c-2c31 (single isomer, unassigned; enantiomer 2) [Example 13, (−)-4-chloro-2,3,14-trimethyl-7-[3-(naphthalen-1-yloxy)propyl]-10,11,12,13,14,15-hexahydro-2H-pyrazolo[3′,4′:8,9][1,6]diazacycloundecino[10,11,1-hi]indole-8-carboxylic acid-N-ethylethanamine Salt (Enantiomer 2)]							10	13	6.4	6.9		12.2		
